Values after ≈ are worked out from the molar mass of the structure shown.
Key:
[1] = system: Candida sp.; experiment: Antifungal activities (in vitro), MIC on Sabouraud's agar medium; type: cell-based; conditions: 48 h, 37° C., growth evaluated two days after
Method: (§1) A plate of a series of diluted specimen was prepared under steriled conditions using Sabouraud's agar medium (glucose 2%, peptone 1%, agar 1.5%), to which 1 μl of each of the test fungus solutions was inoculated by using a quantitative platinum loop.

[2] = system: Trichophyton sp.; experiment: as above; type: cell-based; conditions: 168 h, 27° C., growth evaluated seven days after
Method: as §1

[3] = system: C. albicans (TIMM 0144); experiment: Direct cell-membrane damaging (potassium ion leakage); type: cell-based; conditions: test compound 40 μg/ml, 15 minutes, atomic absorption spectrometry
Method: Direct cell-membrane damaging, which is one of the characteristic actions of azole antifungal drugs, was evaluated.
As a test strain, C. albicans (TIMM 0144) was used. Fresh cultures of C. albicans (TIMM 0144) were washed to make a deionized aqueous solution containing the same at a concentration of 1×10^8 /ml. In the presence of a test compound at a concentration of 40 μg/ml, potassium ion leakage concentration was measured 15 minutes after by way of atomic absorption spectrometry to evaluate the direct cell-membrane damaging.

[4] = system: T. mentagrophytes (TIMM 1189); experiment: Antifungal activities (in vivo), guinea pig skin infection, retro-culture; design: species or system Hartley white female guinea pigs; conditions: guinea pigs, 1% test compound in white petrolatum applied once a day for 6 days from fifth day of inoculation
Text: Hartley white female guinea pigs were used in this test. The back hair were depilated to form a round area having a diameter of 2 cm. 1×10^8microconidia of T. mentagrophytes (TIMM 1189) were inoculated therein for infection. From the fifth day of the inoculation, a composition containing 1% test compound (base: white petrolatum) was applied once a day for 6 consecutive days. Thereafter, the animals were left for 1 day, and slaughtered while removing the blood. The suffered skin was taken, cut and subjected to the retro-culture. The negative ratio of the strain was measured.

[5] = Acute toxicity; conditions: mouse, in vivo, po; dosed orally on mice

| SMILES | MIC [1] [µg/mL] | MIC [2] [µg/mL] | Potassium ion leakage rate (%) [3] [%] | Negative ratio (%) [4] [%] | LD50 [5] [mg/kg] |
| --- | --- | --- | --- | --- | --- |
| CC(C)=CCC/C(C)=C/COC(Cn1ccnc1)c1ccccc1 (centres unmarked) [Compound 5, 1-[2-((E)-3,7-dimethylocta-2,6-dienyloxy)-2-phenylethyl]-1H-imidazole] | 20 (≈ 61.6 µM) | 5 (≈ 15.4 µM) |  |  |  |
| CC(C)=CCC/C(C)=C/CSC(Cn1ccnc1)c1ccc(Cl)cc1Cl (centres unmarked) [Compound 10, 1-[2-(2,4-dichlorophenyl)-2-((E)-3,7-dimethylocta-2,6-dienylthio)ethyl]-1H-imidazole] | > 80 | 20 (≈ 48.8 µM) | 47 | 37 |  |
| CC(C)=CCC/C(C)=C/CC/C(C)=C/COC(Cn1ccnc1)c1ccc(Cl)cc1Cl (centres unmarked) [Compound 2, 1-[2-(2,4-dichlorophenyl)-2-((E,E)-3,7,11-trimethyldodeca-2,6,10-trienyloxy)ethyl]-1H-imidazole] | > 80 | 40 to 80 (≈ 86.7 to 173 µM) | 55 |  |  |
| CC(C)=CCC/C(C)=C/COC(Cn1ccnc1)c1ccccc1[N+](=O)[O-] (centres unmarked) [Compound 3, 1-[2-((E)-3,7-dimethylocta-2,6-dienyloxy)-2-(2-nitrophenyl)ethyl]-1H-imadazole] | 20 to 40 (≈ 54.1 to 108 µM) | 0.16 to 5 (≈ 0.433 to 13.5 µM) |  |  |  |
| CC(C)=CCC/C(C)=C\COC(Cn1ccnc1)c1ccc(Cl)cc1Cl (centres unmarked) [Compound 6, 1-[2-(2,4-dichlorophenyl)-2-((Z)-3,7-dimethylocta-2,6-dienyloxy)ethyl]-1H-imidazole] | 20 to 40 (≈ 50.8 to 102 µM) | 5 to 10 (≈ 12.7 to 25.4 µM) | 74 | 89 |  |
| CC(C)=CCC/C(C)=C/CO/N=C(\Cn1ccnc1)c1ccc(Cl)cc1Cl [Compound 11, (Z)-1-(2,4-dichlorophenyl)-2-(1H-imidazole-1-yl)-O-((E)-3,7-dimethylocta-2,6-dienyl) ethanonoxime] | 40 (≈ 98.4 µM) | 5 to 20 (≈ 12.3 to 49.2 µM) |  |  |  |
| CC(C)=CCC/C(C)=C/CN(C)C(Cn1ccnc1)c1ccc(Cl)cc1Cl (centres unmarked) [Compound 9, 1-[2-(2,4-dichlorophenyl)-2-{N-((E)-3,7-dimethylocta-2,6-dienyl)-N-methylamino}ethyl]-1H-imidazole] | 40 (≈ 98.4 µM) | 10 to 20 (≈ 24.6 to 49.2 µM) |  | 34 |  |
| CC(C)=CCC/C(C)=C/COC(Cn1ccnc1)c1ccccc1C(F)(F)F (centres unmarked) [Compound 4, 1-[2-((E)-3,7-dimethylocta-2,6-dienyloxy)-2-(2-trifluoromethylphenyl)ethyl]-1H-imidazole] | 20 (≈ 51 µM) | 1.25 to 20 (≈ 3.18 to 51 µM) |  |  |  |
| CC(C)=CCC/C(C)=C/COC(Cn1ccnc1)c1ccc(Cl)cc1Cl (centres unmarked) [Compound 1, 1-[2-(2,4-dichlorophenyl)-2-((E)-3,7-dimethylocta-2,6-dienyloxy)ethyl]-1H-imidazole] | 40 (≈ 102 µM) | 5 to 10 (≈ 12.7 to 25.4 µM) | 81 | 95 | ≥ 1000 |
| CC(C)=CCC/C(C)=C/CNC(Cn1ccnc1)c1ccc(Cl)cc1Cl (centres unmarked) [Compound 8, 1-[2-(2,4-dichlorophenyl)-2-((E)-3,7-dimethylocta-2,6-dienylamino)ethyl]-1H-imidazole] | 40 (≈ 102 µM) | 10 to 20 (≈ 25.5 to 51 µM) | 65 | 46 |  |
| CC(C)=CCC/C(C)=C/COC(Cn1cncn1)c1ccc(Br)cc1 (centres unmarked) [Compound 7, 1-[2-(4-bromophenyl)-2-((E)-3,7-dimethylocta-2,6-dienyloxy)ethyl]-1H-triazole] | > 80 | > 80 |  |  |  |
| Clc1ccc(COC(Cn2ccnc2)c2ccc(Cl)cc2Cl)c(Cl)c1 (centres unmarked) [Miconazole, miconazole, reference compound] |  |  |  | 27 |  |
| Clc1ccccc1C(c1ccccc1)(c1ccccc1)n1ccnc1 [Clotrimazole, clotrimazole, reference compound] |  |  |  | 24 |  |

From patent publication US5183824A, “Azole derivatives and antifungal drugs containing the same as an active component” (Kao Corporation, priority 1989, dated 1993)
